The values below come from a melting point compilation (Tetko et al.; mined from patent text by program, amines drawn as free bases though some values may be those of a salt).

Each structure is given as a SMILES string.

`Cc1oc(-c2ccco2)nc1CCOc1ccc(CC2SC(=O)NC2=O)cn1` (centres undefined) showed a melting point of 160 to 162 °C.

On to `Cc1cc2ccccc2nc1NN`, for which the melting point worked out at 128 °C.

For the molecule `C[Si]1(CC(CN)CC(=O)O)CCCC1` (centres undefined), the melting point lay within 133 to 135 °C.

The molecule `N#Cc1ccc(OCC(O)CN2CCSCC2)cc1` (centres undefined) yielded a melting point of 94 to 95 °C.

With `Cc1cc(Cl)ccc1N=c1ssnc1Cl`, the melting point fell in the range of 130 to 131 °C.

Take `COc1cc(OC)c(NC(=O)CBr)c(OC)c1`: the melting point lay within 160 to 161 °C.

Regarding `CNC(=O)c1cc2c(Oc3ccc(CO)cc3)cncc2s1`, the melting point is 195 to 196 °C.

For the molecule `O=C(Nc1nc(NC(=O)c2cccnc2)nc(NC(=O)c2cccnc2)n1)c1cccnc1`, the melting point was 276 to 278 °C.

As to `Cc1ncc2cc(C(c3ccccc3)n3ccnc3)ccc2n1` (centres undefined), the melting point stood at 130 °C.

In the case of `CS(=O)(=O)NC1CC(N)(C(=O)O)C2C(C(=O)O)C12` (centres undefined), the melting point is > 275 °C.

As for `O=C(O)CNC1=Nc2ccc(Cl)cc2C(c2ccccc2)=NC1`, the melting point was 215 to 220 °C.

`Cc1nnc(-c2ccc3occ(-c4ccc(S(=O)(=O)C(C)C)cc4)c3c2)o1` came in with a melting point of 229 to 230 °C.

For `CS(=O)(=O)c1ccc(-c2nn(CC3CC3)c(=O)cc2-c2ccc(Cl)cc2)cc1`, the melting point turned out to be 140 °C.

The molecule `O=[N+]([O-])CS(=O)(=O)c1ccc(F)cc1F` yielded a melting point of 74 to 75 °C.

`Cc1cc2cnn(CCO)c2cc1Nc1nnc2n1[C@H](c1ccc(F)cc1)COC2` yielded a melting point of 215 to 217 °C.

With `CN(C)CCn1c2c(c3ccccc31)CCS(=O)(=O)CCC2`, the melting point was in the range of 154 to 155 °C.

In the case of `N#Cc1c(SCCl)nsc1SCCl`, the melting point fell in the range of 92 to 93 °C.

The molecule `CCOC(=O)c1cc2cc(OCCCS(C)(=O)=O)cc(N(C)S(=O)(=O)c3ccccn3)c2[nH]1` yielded a melting point of 176 to 177 °C.

Regarding `NC(CSc1nc(NCc2ccc3c(c2)OCO3)cc(-c2ccccc2)n1)=NO`, the melting point was in the range of 160 to 163 °C.

Turning to `CCOc1nn(-c2ccc(C(F)(F)F)cn2)cc1CCCOc1c(CCC(=O)O)cccc1OC`, the melting point was 87 to 88 °C.

Molecule `CCCCCCCCCCCCC(Oc1ccc(NS(=O)(=O)CCCC)cc1)C(=O)O` (centres undefined) displayed a melting point of 80 to 82 °C.

`O=C(O)c1cc2ccccc2nc1N[C@H](Cc1ccccc1)C(=O)O` came in with a melting point of 140 to 142 °C.

Regarding `CCOC(=O)C1=C(C)NC(C#N)=C(C(=O)OCC)C1c1ccccc1C(F)(F)F` (centres undefined), the melting point was in the range of 140 to 143 °C.

`Cc1cc(-n2ccnc2)c2cccc(OCc3c(Cl)ccc(S(=O)(=O)N4CCC[C@H]4C(=O)N4CCN(Cc5ccncc5)CC4)c3Cl)c2n1` displayed a melting point of 108 °C.

Molecule `COC(=O)c1ccc2cc(CCCO)oc2c1` had a melting point of 63 to 65 °C.

As to `COc1ccc(-c2c(C(=O)O)n(Cc3ccc4c(c3)OCO4)c3ccccc23)cc1`, the melting point lay in the range of 109 to 111 °C.

`O=C(Nc1cccc(F)c1)N1CCc2cc(S(=O)(=O)N3CCN(c4cccc(Cl)c4)CC3)ccc21`: the melting point was 208 to 210 °C.

Take `Cc1cc(-c2ccc(Cl)cc2)nc2c(C(=O)Nc3cccc(S(C)(=O)=O)c3)cnn12`: the melting point was in the range of 250 to 251 °C.

`CN1CC(CO)C=C2c3cccc4[nH]c(Br)c(c34)CC21` (centres undefined) came in with a melting point of 193 °C.

`CCC(O)(CC(N)=O)c1ccc(Cl)c(Cl)c1` (centres undefined) came in with a melting point of 99 to 100 °C.

`Cc1c(NC(=O)c2ccc(OCC3CC3)cc2)ccc2cc(CN3CCCC3)cnc12`: the melting point was 168 °C.

In the case of `Cc1cc(=O)oc2nn(Cc3cccnc3)c(C)c12`, the melting point lay in the range of 191 to 193 °C.

Regarding `CCCc1c(OCCCCCC(=O)c2cc(OC)c(OC)cc2F)ccc(C(=O)O)c1O`, the melting point lay in the range of 146 to 147 °C.

In turn, `Fc1ccccc1-c1cnc2nncn2n1` showed a melting point of 193 to 196 °C.

In turn, `Cc1ccc(S(=O)(=O)N2CCC(C#N)(c3ccc(Cl)cc3)CC2)cc1` yielded a melting point of 202 to 206 °C.

`CCCCN(CCCC)C(=O)Nc1ccc(C)cc1C` displayed a melting point of 48 to 50 °C.

Regarding `Cc1nc(-c2ccccn2)c2nc(-c3ccccc3)cc-2[nH]1`, the melting point lay in the range of 182 to 183 °C.

Molecule `CCC(=O)Nc1cccc(-c2ccc(=O)[nH]n2)c1` registered a melting point of 229 to 230 °C.

In turn, `COc1ccccc1N1CCN(CCn2c(O)nc3sc4c(c3c2=O)CCN(C(C)=O)C4)CC1` came in with a melting point of 135 to 137 °C.

Turning to `COCCc1nc2c(N)nc3c(c2n1CCCNS(C)(=O)=O)CCCC3`, the melting point is 150 to 152 °C.

`Clc1nccc2cc(Br)ccc12`: the melting point lay in the range of 103 to 104 °C.

`Cc1ccc2nc(C)c(C(=O)NNC(=O)CCl)n2c1` came in with a melting point of 290 to 291 °C.

`CN(C)C(=O)c1ccc(CNC(=O)C2Cc3ccccc3N2S(=O)(=O)c2ccc(-c3ccccc3C(F)(F)F)cc2)cc1` (centres undefined) returned a melting point of 105 to 106 °C.

In the case of `CCOC(=O)C1=C(c2ccccc2)Nc2n[nH]cc2C1c1cccc(Cl)c1Cl` (centres undefined), the melting point turned out to be 214 °C.

Regarding `CCOC(=O)c1nc2scc(CN=[N+]=[N-])c2c(=O)[nH]1`, the melting point was 192 °C.

The molecule `CCOC(=O)C(C(=O)Cc1cc(OC(C)C)c(Cl)cc1F)=C(N)C(F)(F)F` came in with a melting point of 58 to 59 °C.

The molecule `CCOC(=O)C(O)=Cc1ccc(Cc2ccc(F)cc2)cn1` yielded a melting point of 94 to 96 °C.

The molecule `CC(C)(C)CC(=O)Nc1ccc2oc3c(c2c1)CCC3` came in with a melting point of 196 to 197 °C.

Turning to `CC(=O)c1c(NC(=O)c2ccc(C)cc2)cccc1C(F)(F)F`, the melting point is 171 °C.

Turning to `COc1c(F)cc(Cn2cnnc2S)cc1F`, the melting point lay within 124 to 126 °C.

For `CC(=O)Nc1nc2c(Oc3cc(-c4ccc(C(F)(F)F)cc4)nc(N4CCN(C(=O)OC(C)(C)C)CC4)n3)cccc2s1`, the melting point stood at 211 °C.

`CN(C)C(=O)c1cn(Cc2ccccc2Cl)nn1` showed a melting point of 120 to 121 °C.

On to `COC(=O)COc1ccc(SCc2cc(-c3ccc(C(F)(F)F)cc3)on2)c2c1CCCO2`, for which the melting point was 112 to 113 °C.

In turn, `O=C1N=C(N2CCOCC2)SC1c1cncc(-c2cc(F)c(O)c(C34CC5CC(CC(C5)C3)C4)c2)c1` (centres undefined) had a melting point of 310 to 317 °C.

`CCCCc1ncc(C=O)n1Cc1ccc(C(=O)OC)c2ccccc12`: the melting point lay within 95.5 to 97 °C.

`COC(=O)Cc1ccc(CN2CCN(C(c3ccccc3)c3ccc(Cl)cc3)CC2)cc1` (centres undefined) registered a melting point of 113 to 115 °C.

`O=S(=O)(c1ccc(O)cc1)c1ccc(-c2ccccc2)cc1` gave a melting point of 246 to 248 °C.

As to `COc1ccc(Nc2nc(NC(C)C)nc(Oc3ccccc3C#CC(C)(C)O)n2)cc1Cl`, the melting point is 138 to 140 °C.

The molecule `O=C(O)c1ncsc1-c1ccccc1` yielded a melting point of 189 to 190 °C.

In turn, `OCc1cn(Cc2ccccc2)c(-c2ccc(OCc3ccccc3)cc2)n1` returned a melting point of 129 to 131 °C.

For the molecule `O=Cc1cc(Br)c(Cl)cc1[N+](=O)[O-]`, the melting point is 81 to 82 °C.

`O=C(c1ccc(-c2ccncc2)nc1)N1CCN(S(=O)(=O)c2ccc3cc(Br)ccc3c2)CC1`: the melting point stood at 194 °C.

As to `O=C1NC(=NCc2ccccc2)C(c2ccc(Br)cc2)N1c1ccc2[nH]cnc2c1` (centres undefined), the melting point worked out at 244 °C.

The molecule `CCN(CC)CCSc1nnc(SCN2C(=O)c3ccccc3S2(=O)=O)s1` yielded a melting point of 93 to 94.5 °C.

For the molecule `Nc1nc(-c2cc(Cl)ccc2Cl)nc(N2CCNCC2)n1`, the melting point lay within 163 to 165 °C.

`CCC1(C)CCN(C(=O)CN(C(=O)CNC(=O)Nc2cccc(C)c2)c2ccccc2)CC1`: the melting point amounted to 204 °C.

Regarding `O=C(NCCOc1ccc(CC(Oc2ccc(F)cc2)C(=O)O)cc1)c1ccc(-c2ccccn2)cc1` (centres undefined), the melting point was 139 to 140 °C.

Regarding `C=Cc1ccccc1C(=O)n1nnc2ccccc2c1=O`, the melting point was found to be 120 °C.

In turn, `CCOc1ccnc(F)c1` registered a melting point of 35 to 36 °C.

As for `C=C1CC(COc2cccc3ccc(C)nc23)(c2ccccc2)OC1=O` (centres undefined), the melting point lay in the range of 108 to 109 °C.

The molecule `Cc1cc(C(=O)Nc2ccn3cc(-c4ccccc4)nc3n2)cc(Cl)n1` showed a melting point of 148 to 151 °C.

In turn, `OCCOc1ccc(Nc2cc(Nc3ccccc3F)ncn2)cc1` yielded a melting point of 163 to 166 °C.

Turning to `CCOC(=O)CCn1c(=O)c2ccccc2n(CCCCl)c1=O`, the melting point fell in the range of 80 to 81 °C.

On to `O=C1c2ccccc2CN1CSc1ccncc1`, for which the melting point lay in the range of 131 to 132 °C.

Turning to `COc1nc(Cl)c(-c2c(F)cc(F)cc2F)c(N[C@@H](C)C(F)(F)F)n1`, the melting point is 121 to 129 °C.

In the case of `CCN(CC)C(=O)n1ccc(Sc2ccc(Br)cc2Cl)n1`, the melting point was 77 to 79 °C.

In turn, `CC(=O)N1CCC(C(=O)c2cc(F)ccc2F)CC1` returned a melting point of 82 to 87 °C.

`CCOC(=O)C(Oc1nc(OC)cc(OC)n1)C(C)(C)c1ccccc1` (centres undefined) had a melting point of 123 to 124 °C.

Take `O=C(Oc1cc(-c2ccccc2)c2ccccc2n1)N1CCCCC1`: the melting point came to 85 °C.

The molecule `O=C(O)c1ccc(-c2nc(-c3cccnc3)cs2)cc1` came in with a melting point of 303 to 304 °C.

`COc1ccc(OC)c(Cc2n[nH]c3c2c(=O)n(-c2ccccc2)c2ncccc32)c1` showed a melting point of 248 to 250 °C.

With `CCCc1cc(-c2ccc(Cl)cc2)nc2c(C(=O)Nc3cccc(S(C)(=O)=O)c3)cnn12`, the melting point lay within 214 to 217 °C.

The molecule `CC(C)(C)OC(=O)N1CCC(C(=O)N2CCN(c3ccncn3)CC2)CC1` displayed a melting point of 159 to 163 °C.

With `OP(O)C(NC(c1ccccc1)c1ccccc1)c1ccco1` (centres undefined), the melting point is 193 °C.

`COC(=O)c1cc(OCCCCCCCCCCCCOc2ccccc2)ccc1O`: the melting point was 61 to 64 °C.

In the case of `CCc1nnc(-c2cccc([N+](=O)[O-])c2)n1-c1ccc(OC)cc1`, the melting point was determined as 126 °C.

`ON=C(c1ccccc1)c1ccc(OCCCOc2ccc(C(=NO)c3ccccc3)cc2)cc1` gave a melting point of 205 to 208 °C.

As to `COc1ccc([N+](=O)[O-])c(C=CN2CCCC2)c1`, the melting point lay within 71 to 72 °C.

In turn, `CNC(=O)c1n[nH]cc1NC(=O)c1ccccn1` had a melting point of 248 to 249 °C.

Broadly, the melting point is the temperature of the solid-liquid transition.
